The values below come from US20050069948A1, “Screening method” (priority 2002, published 2005).

In one data set the test system is male Zucker fatty rat. Put plainly: Urinary albumin excretion in Zucker fatty rats. It counts as in vivo. As to the method:
(§1) To the control group and the normal control group, i.e., male Zucker lean rats (ZL rat, Charles River Japan Inc.) with the same age, 0.5% methylcellulose 100 cP (Vehicle) was administered once per day everyday. Eight weeks after administration, urine was accumulated for 24 hours, and then the urinary albumin excretion was determined using A/G B Test Wako (Wako Pure Chemical Industries). Nine weeks after administration, the kidneys were collected and stored at −80° C., and subsequently the kidneys were crushed to extract the total RNA. The primers and fluorescent probe were prepared on the basis of the mRNA sequence previously reported, and then the amount of each of individual mRNAs was determined using ABI PRISM 7700 (Applied Biosystems) by the real time quantitative RT-PCR method.

Data set [1] relates to Egr-1, TGF-β1, PDGF-B, fibronectin and α1 (I) collagen mRNA in the kidney of Zucker Fatty Rats. Put plainly: mRNA expression levels in the kidney of Zucker fatty rats (real time quantitative RT-PCR). Format: in vivo, rat. As to the method:
as §1

The next data set has as its target human Egr-1 (human) (UniProt P18146). Put plainly: plate assay: Egr-1 from HEK293 lysate captured on biotinylated double-stranded DNA with the Egr-1 binding sequence (SEQ ID NO: 10) on a streptavidin plate, detected with anti-Egr-1 polyclonal antibody and HRP anti-rabbit IgG.
Another data set concerns Egr-1 mRNA. Briefly: Egr-1 mRNA expression in rat glomerular mesangial cells after FCS or AII stimulus (RT-PCR). It counts as cell-based. As to conditions: 30 minutes after FCS (20%) stimulus; Candesartan 10^−5 M added 5 minutes before; relative value, before stimulus = 1; n = 3, Mean. As to the method: Glomerular mesangial cells ([…] 7) isolated and cultivated from a male Sprague-Dawley rat (SD rat, Japan Crea) of the age of 4 weeks were cultivated in DMEM medium containing 20% fetal calf serum (FCS) for 4 days, and then the cells were cultivated in DMEM containing 0.2% bovine serum albumin for 3 days. To the cells after cultivation, FCS (20%) or angiotensin II (AII) (10^-6M) was added, and then the resulting mixture was reacted at 37° C. for 30 minutes. The AII type I receptor antagonist Candesartan of 10^-5 M as the final concentration was added to the medium 5 minutes prior to the stimulation of FCS or AII. Thirty minutes after FCS or AII stimulus, total RNA was extracted. The primers and fluorescent probe were prepared on the basis of the mRNA sequence previously reported, and subsequently the level of Egr-1 mRNA expression was determined using ABI PRISM 7700 (Applied Biosystems) by the real time quantitative RT-PCR method.

The next data set concerns Egr-1 protein. Briefly: Egr-1 protein expression in rat glomerular mesangial cells after bFGF stimulus (Western blotting). It counts as cell-based. As to conditions: ODN 20 μM for 24 hours, one hour after bFGF (3 ng/ml) stimulus, relative value, control = 1, n = 2-3, Mean. From the text:
(§2) Glomerular mesangial cells (passege 4-5) isolated and cultivated from a male SD rat with 4 weeks age were cultivated for 3 to 4 days in DMEM medium containing 20% fetal bovine serum to sub-confluence, and the medium was changed to DMEM containing a 0.2% bovine serum albumin and then the resulting material was subjected to serum starvation. Forty-eight hours after initiation of the serum starvation, Egr-1 AS-ODN (SEQ ID NO: 7) or a Control-ODN (the scrambled ODNs that were matched with the AS-ODN in size and the number of bases, both synthesized by BIOGNOSTIK Corp.) with a concentration of 20 μM was added to the medium and the resultant material was allowed to stand in a CO2 incubator for 24 hours. Thereafter the material was stimulated with a basic fibroblast growth factor (bFGF) (3 ng/ml), and then was reacted at 37° C. for 1 to 2 hours. A protein was extracted from the cell one hour after bFGF stimulus, and total RNA was extracted from a cell two hours after bFGF stimulus. […] The brightness accumulation value of the band thus detected was calculated by a CS Analyzer 1.00a (ATTO). Also, the mRNA expression level of the tissue factor was determined by making the primer and fluorescent probe on the basis of the mRNA sequence previously reported and by using ABI PRISM 7700 (Applied Biosystems) by means of the quantitative RT-PCR method.
(Immunoblotting shows a protein as a band on a membrane.)

Data set [2] relates to Glomerular mesangial cells. Put plainly: Cytotoxicity by transfection in rat glomerular mesangial cells. The settings on record: ODN 20 μM. It counts as cell-based.
In another data set the test system is tissue factor mRNA. Put plainly: Tissue factor mRNA expression in rat glomerular mesangial cells after bFGF stimulus (quantitative RT-PCR). It counts as cell-based. As to conditions: ODN 20 μM for 24 hours, two hours after bFGF (3 ng/ml) stimulus, relative value, control = 1, n = 2-3, Mean.
Excerpt: as §2

[3] abbreviates: ZF rat, nine weeks after administration, relative value, ZL rat = 1, n = 8-9, Mean.

Sequence of Egr-1 protein (P08154 whole entry): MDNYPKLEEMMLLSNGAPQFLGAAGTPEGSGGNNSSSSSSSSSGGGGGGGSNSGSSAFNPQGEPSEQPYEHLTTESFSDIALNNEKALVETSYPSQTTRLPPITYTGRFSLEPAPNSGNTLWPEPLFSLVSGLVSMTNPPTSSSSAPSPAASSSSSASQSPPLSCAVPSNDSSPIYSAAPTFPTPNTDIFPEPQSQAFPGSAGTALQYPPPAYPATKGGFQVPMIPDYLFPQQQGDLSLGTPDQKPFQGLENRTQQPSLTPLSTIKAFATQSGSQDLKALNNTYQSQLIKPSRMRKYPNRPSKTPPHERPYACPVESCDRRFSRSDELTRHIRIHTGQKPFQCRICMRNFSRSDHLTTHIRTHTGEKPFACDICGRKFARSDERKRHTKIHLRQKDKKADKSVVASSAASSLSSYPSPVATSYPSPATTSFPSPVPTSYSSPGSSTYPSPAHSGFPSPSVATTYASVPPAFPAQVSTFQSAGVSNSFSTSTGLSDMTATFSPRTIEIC
Sequence of human Egr-1 (human) (P18146 whole entry): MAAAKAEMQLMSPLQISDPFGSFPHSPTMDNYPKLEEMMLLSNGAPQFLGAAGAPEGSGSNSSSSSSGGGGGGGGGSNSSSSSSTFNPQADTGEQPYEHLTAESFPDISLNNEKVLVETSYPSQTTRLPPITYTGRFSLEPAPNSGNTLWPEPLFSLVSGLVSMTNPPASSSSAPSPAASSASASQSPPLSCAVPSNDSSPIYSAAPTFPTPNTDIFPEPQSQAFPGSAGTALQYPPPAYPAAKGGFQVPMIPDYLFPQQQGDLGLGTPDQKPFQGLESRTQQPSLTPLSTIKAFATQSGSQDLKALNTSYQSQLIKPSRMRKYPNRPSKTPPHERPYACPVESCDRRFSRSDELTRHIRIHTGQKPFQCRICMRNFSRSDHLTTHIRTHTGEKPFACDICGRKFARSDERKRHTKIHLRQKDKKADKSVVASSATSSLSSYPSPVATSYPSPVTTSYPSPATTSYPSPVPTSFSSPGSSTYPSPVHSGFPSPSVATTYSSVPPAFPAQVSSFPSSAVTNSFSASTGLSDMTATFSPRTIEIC

Compound `CCOc1nc2cccc(C(=O)OC(C)OC(=O)OC3CCCCC3)c2n1Cc1ccc(-c2ccccc2-c2nnn[nH]2)cc1` (stereo not drawn) [Candesartan cilexetil] displayed a Urinary albumin excretion in the data set with male Zucker fatty rat (ZF rat, orally once per day, eight weeks after administration, 24 hours urine, n = 8-9, Mean) of 61.7 mg/day. Besides, the “Increase in the urinary albumin excretion (in words)” value with male Zucker fatty rat (Zucker fatty rat, oral administration once per day) is “inhibition of an increase”. For the same compound, the “Increase in the level of Egr-1, TGF-β1, PDGF-B, fibronectin and α1(I) collagen mRNA expression in the kidney (in words)” value in data set [1] (Zucker fatty rat, oral administration once per day for 9 weeks) is “inhibits the increase”.
“anti-Egr-1 antigen (rabbit, polyclonal antibody, SANTA CRUZ Corp., sc-189)” returned an absorbance at 450 nm (absorbance (450 nm)) in the data set with human Egr-1 (human) of 0.751.
Take `CCOc1nc2cccc(C(=O)O)c2n1Cc1ccc(-c2ccccc2-c2nnn[nH]2)cc1` [Candesartan]: the “Egr-1 mRNA expression level” value in the data set on Egr-1 mRNA stood at 18.4. In addition, in data set [1] (setting [3]), the “Egr-1 mRNA expression level in the kidney” value is 1.3, the “Fibronectin mRNA expression level in the kidney” value came out at 1.1, the “PDGF-B mRNA expression level in the kidney” value is recorded as 1.0 and the “TGF-β1 mRNA expression level in the kidney” value is given as 1.2. Also, the “α1 (I) collagen mRNA expression level in the kidney” value in data set [1] (setting [3]) is 1.6.
On to “AS-ODN: Egr-1 antisense oligodeoxynucleotide (SEQ ID NO: 7), synthesized by BIOGNOSTIK Corp. (antisense GCGGGGTGCAGGGGCACACT; DNA, backbone and methylation of C not given here)”, for which the Egr-1 protein expression in the data set with Egr-1 protein was 2.0; with Egr-1 protein (listed as Egr-1 AS-ODN), “suppressed”. Moreover, the Cytotoxicity by transfection entry in data set [2] was “not observed”. Also, the entries for the “Tissue factor mRNA expression” value in the data set with tissue factor mRNA and in the data set on tissue factor mRNA (listed as Egr-1 AS-ODN) were 1.1 and “almost completely suppressed”, respectively.
